Patent US20100312139A1, “Method for Identifying Mammals at Risk for Elevated intracranial Pressure” (BOARD OF REGENTS OF THE UNIVERSITY OF TEXAS SYSTEM, priority 2009, published 2010)

Tested on: TBI-associated cerebral edema, controlled cortical impact model
Experiment: Cerebral edema as percentage brain water content (wet-dry method) after controlled cortical impact brain injury
Format: in vivo
Details: rat, 400 mg/kg administered 30 minutes after cortical impact injury, measured 24 hr after injury, versus control animals
Method: A number of studies have reported that blood-brain barrier compromise and cerebral edema are key contributors to the elevation of ICP. Penicillamine is a copper scavenger that is FDA approved for the treatment of Wilson's disease. Therefore penicillamine was used in this study to determine if sequestration of copper would restore TBI-associated BBB permeability and cerebral edema. […] BBB permeability was assessed by measuring the extravasation of Evans Blue dye as described in Zhao, et al., 2007 (Zhao, J., Moore, A. N., Redell, J. B. and Dash, P. K. 2007. Enhancing expression of Nrf2-driven genes protects the blood brain barrier after brain injury. J. Neurosci. 27, 10240-10248).
Cerebral edema was assessed by determining the percentage brain water content using the wet-dry method as described previously (McIntosh, T. K., Soares, H., Thomas, M. and Cloherty, K. 1990. Development of regional cerebral oedema after lateral fluid-percussion brain injury in the rat. Acta Neurochir. Suppl (Wien.) 51, 263-264; Shohami, E., Novikov, M. and Mechoulam, R. 1993. A nonpsychotropic cannabinoid, HU-211, has cerebroprotective effects after closed head injury in the rat. J. Neurotrauma 10, 109-119). BBB permeability and cerebral edema were measured 24 hr after injury, in independent sets of animals.

## CC(C)(S)[C@@H](N)C(=O)O [penicillamine, Penicillamine]
  effect on cerebral edema (percentage brain water content): did not have any effect
